Data taken from US9212164B2, “Pesticidal compositions and processes related thereto” (Dow AgroSciences LLC, priority 2012, dated 2015).

Key:
Type in all cases: in vivo
[1] = tested on: Beet Armyworm (BAW) (Spodoptera exigua); experiment: Bioassays on BAW, 128-well diet tray assay; settings: Spodoptera exigua, 168 h; 50 μg/cm^2 on artificial diet, second instar larvae, five to seven days, 25° C.; read-out: BAW Rating (percent mortality)
Description: (§1) Certain molecules disclosed in this document were tested against BAW, CEW and CL using procedures described in the following examples. In the reporting of the results, the “BAW & CEW & CL Rating Table” was used (See Table Section).
Bioassays on BAW (Spodoptera exigua)
Bioassays on BAW were conducted using a 128-well diet tray assay. One to five second instar BAW larvae were placed in each well (3 mL) of the diet tray that had been previously filled with 1 mL of artificial diet to which 50 μg/cm^2 of the test compound (dissolved in 50 μL of 90:10 acetone-water mixture) had been applied (to each of eight wells) and then allowed to dry. Trays were covered with a clear self-adhesive cover, and held at 25° C., 14:10 light-dark for five to seven days. Percent mortality was recorded for the larvae in each well; activity in the eight wells was then averaged. The results are indicated in the tables entitled “Table 3: Assay Results Part 1” and “Table 4: Assay Results Part 2” (See Table Section).

[2] = tested on: Cabbage Looper (CL) (Trichoplusia ni); experiment: Bioassays on CL, 128-well diet tray assay; settings: 168 h, 50 μg/cm^2 on artificial diet, second instar larvae, five to seven days, 25° C., read-out: CL Rating (percent mortality)
Description: as §1
Bioassays on CL (Trichoplusia ni)
Bioassays on CL were conducted using a 128-well diet tray assay. One to five second instar CL larvae were placed in each well (3 mL) of the diet tray that had been previously filled with 1 mL of artificial diet to which 50 μg/cm^2 of the test compound (dissolved in 50 μL of 90:10 acetone-water mixture) had been applied (to each of eight wells) and then allowed to dry. Trays were covered with a clear self-adhesive cover, and held at 25° C., 14:10 light-dark for five to seven days. Percent mortality was recorded for the larvae in each well; activity in the eight wells was then averaged. The results are indicated in the table entitled “Table 4: Assay Results Part 2” (See Table Section).

[3] = tested on: Green Peach Aphid (GPA) (Myzus persicae); experiment: Bioassays on Green Peach Aphid, foliar spray on cabbage seedlings; settings: 200 ppm spray on cabbage seedlings, graded after three days
From the text: GPA is the most significant aphid pest of peach trees, causing decreased growth, shriveling of the leaves, and the death of various tissues. It is also hazardous because it acts as a vector for the transport of plant viruses, such as potato virus Y and potato leafroll virus to members of the nightshade/potato family Solanaceae, and various mosaic viruses to many other food crops. GPA attacks such plants as broccoli, burdock, cabbage, carrot, cauliflower, daikon, eggplant, green beans, lettuce, macadamia, papaya, peppers, sweet potatoes, tomatoes, watercress, and zucchini, among other plants. GPA also attacks many ornamental crops such as carnation, chrysanthemum, flowering white cabbage, poinsettia, and roses. GPA has developed resistance to many pesticides.
Certain molecules disclosed in this document were tested against GPA using procedures described in the following example. In the reporting of the results, the “GPA Rating Table” was used (See Table Section).
Cabbage seedlings grown in 3-inch pots, with 2-3 small (3-5 cm) true leaves, were used as test substrate. The seedlings were infested with 20-50 GPA (wingless adult and nymph stages) one day prior to chemical application. […] Percent Control was measured by using Abbott's correction formula (W. S. Abbott, “A Method of Computing the Effectiveness of an Insecticide” J. Econ. Entomol. 18 (1925), pp. 265-267) as follows. […]

SMILES | mortality at 50 µg/cm2 [1] [%] | mortality at 50 µg/cm2 [2] [%] | GPA Rating (corrected % control) [3]
O=C(NC1(C(=O)NCC(F)(F)F)CCC1)c1ccc(/C=C/C(c2cc(Cl)c(Cl)c(Cl)c2)C(F)(F)F)cc1Br (centres unmarked) [Compound F5] | 50 to 100 | 50 to 100 | B (More than 0 - Less than 80)
O=C(NC1(C(=O)NCC(F)(F)F)CC1)c1ccc(/C=C/C(c2cc(Cl)c(Cl)c(Cl)c2)C(F)(F)F)cc1I (centres unmarked) [FA2] | 50 to 100 | 50 to 100 | B (More than 0 - Less than 80)
O=C(NC1(C(=O)NCC(F)F)CC1)c1ccc(/C=C/C(c2cc(Br)cc(Br)c2)C(F)(F)F)cc1C(F)(F)F (centres unmarked) [Compound P1195] | 50 to 100 | 50 to 100 | 
O=C(NC1(C(=O)NCC(F)(F)F)CC1)c1ccc(/C=C/C(c2ccc(Cl)c(Cl)c2)C(F)(F)F)cc1C(F)(F)F (centres unmarked) [Compound P1095] | 50 to 100 | 50 to 100 | 
O=C(NC1(C(=O)NCC(F)(F)F)CC1)c1ccc(/C=C/C(c2cc(Cl)cc(Br)c2)C(F)(F)F)cc1C(F)(F)F (centres unmarked) [Compound P380] | 50 to 100 | 50 to 100 | 
O=C(NC1(C(=O)NCc2ccc(Cl)cc2)CC1)c1ccc(/C=C/C(c2cc(Cl)c(Cl)c(Cl)c2)C(F)(F)F)cc1Br (centres unmarked) [FA16] | 50 to 100 | 50 to 100 | 
O=C(NC1(C(=O)NCC2CCOC2)CC1)c1ccc(/C=C/C(c2cc(Cl)c(Cl)c(Cl)c2)C(F)(F)F)cc1Br (centres unmarked) [FA21] | 50 to 100 | 50 to 100 | 
O=C(NC1(C(=O)NC2CCCC2)CC1)c1ccc(/C=C/C(c2cc(Cl)c(Cl)c(Cl)c2)C(F)(F)F)cc1Br (centres unmarked) [FA17] | 50 to 100 | 50 to 100 | 
O=C(NC1(C(=O)NCC(F)(F)F)CC1)c1ccc(/C=C/C(c2cc(Cl)cc(Cl)c2)C(F)(F)C(F)(F)F)cc1Br (centres unmarked) [Compound P1043] | 50 to 100 | 50 to 100 | 
O=C(NC1(C(=O)Nc2ccc(C(F)(F)F)cc2)CC1)c1ccc(/C=C/C(c2cc(Cl)c(Cl)c(Cl)c2)C(F)(F)F)cc1Br (centres unmarked) [FA36] | 0 | 0 | 
O=C(NC1(C(=O)NCC(F)(F)F)CCC1)c1ccc(/C=C/C(c2cc(Cl)c(Cl)c(Cl)c2)C(F)(F)F)cc1Cl (centres unmarked) [Compound F4] | 50 to 100 | 50 to 100 | 
Cc1cc(C(/C=C/c2ccc(C(=O)NC3(C(=O)NCC(F)(F)F)CC3)c(C(F)(F)F)c2)C(F)(F)F)ccc1Cl (centres unmarked) [Compound P245] | 50 to 100 | 50 to 100 | 
O=C(NC1(C(=O)NCC(F)(F)F)CC1)c1ccc(/C=C/C(c2cc(Cl)cc(Cl)c2)C(F)(F)C(F)(F)F)cc1C(F)(F)F (centres unmarked) [Compound P1045] | 50 to 100 | 50 to 100 | 
COc1ccc(N(C)C(=O)C2(NC(=O)c3ccc(/C=C/C(c4cc(Cl)c(Cl)c(Cl)c4)C(F)(F)F)cc3Br)CC2)cc1 (centres unmarked) [FA41] | 50 to 100 | 50 to 100 | 
O=C(NC1(C(=O)NCC(F)(F)F)CC1)c1ccc(/C=C/C(c2cc(Br)cc(Br)c2)C(F)(F)F)cc1C(F)(F)F (centres unmarked) [Compound P1198] | 50 to 100 | 50 to 100 | 
Cc1cc(C(/C=C/c2ccc(C(=O)NC3(C(=O)NCC(F)(F)F)CC3)c(C(F)(F)F)c2)C(F)(F)F)ccc1F (centres unmarked) [Compound P336] | 50 to 100 | 50 to 100 | 
O=C(NC1(C(=O)NCC(F)(F)F)CC1)c1ccc(/C=C/C(c2cc(Cl)c(Cl)c(Cl)c2)C(F)(F)C(F)(F)F)cc1Br (centres unmarked) [Compound P1003] | 50 to 100 | 50 to 100 | 
Cc1cc(C(/C=C/c2ccc(C(=O)NC3(C(=O)NCC(F)(F)F)CC3)c(Br)c2)C(F)(F)F)ccc1F (centres unmarked) [Compound P693] | 50 to 100 | 50 to 100 | 
O=C(NC1(C(=O)NCC(F)(F)F)CC1)c1ccc(/C=C/[C@@H](c2cc(Cl)c(Cl)c(Cl)c2)C(F)(F)F)cc1C(F)(F)F (single isomer, unassigned) [Compound F8B] | 50 to 100 | 50 to 100 | 
O=C(NC1(C(=O)NCC(F)(F)F)CC1)c1ccc(/C=C/C(c2cccc(OC(F)(F)F)c2)C(F)(F)F)cc1C(F)(F)F (centres unmarked) [Compound P155] | 50 to 100 | 50 to 100 | 
CCN(Cc1ccccc1)C(=O)C1(NC(=O)c2ccc(/C=C/C(c3cc(Cl)c(Cl)c(Cl)c3)C(F)(F)F)cc2Br)CC1 (centres unmarked) [FA45] | 50 to 100 | 50 to 100 | 
O=C(NC1(C(=O)NCC(F)(F)F)CC1)c1ccc(/C=C/C(c2ccc(Br)c(Br)c2)C(F)(F)F)cc1Br (centres unmarked) [Compound P423] | 50 to 100 | 50 to 100 | 
O=C(NC1(C(=O)NC2CCSC2)CC1)c1ccc(/C=C/C(c2cc(Cl)c(Cl)c(Cl)c2)C(F)(F)F)cc1Br (centres unmarked) [FA19] | 50 to 100 | 50 to 100 | 
O=C(NC1(C(=O)NCCC(F)(F)F)CC1)c1ccc(/C=C/C(c2cc(Cl)c(Cl)c(Cl)c2)C(F)(F)F)cc1Br (centres unmarked) [Compound P1033] | 50 to 100 | 50 to 100 | 
O=C(NC1(C(=O)NCc2ccccc2Cl)CC1)c1ccc(/C=C/C(c2cc(Cl)c(Cl)c(Cl)c2)C(F)(F)F)cc1Br (centres unmarked) [FA29] | 50 to 100 | 50 to 100 | 
Cc1cc(C(/C=C/c2ccc(C(=O)NC3(C(=O)NCC(F)(F)F)CC3)c(C(F)(F)F)c2)C(F)(F)F)cc(C)c1Cl (centres unmarked) [FA14] | 50 to 100 | 50 to 100 | 
O=C(NC1(C(=O)NCC(F)(F)F)CC1)c1ccc(/C=C/C(c2cc(Cl)cc(Br)c2)C(F)(F)F)cc1Br (centres unmarked) [Compound P378] | 50 to 100 | 50 to 100 | 
CCNC(=O)C1(NC(=O)c2ccc(/C=C/C(c3cc(Cl)c(Cl)c(Cl)c3)C(F)(F)F)cc2C(F)(F)F)CC1 (centres unmarked) [Compound P1025] | 50 to 100 | 50 to 100 | 
O=C(NC1(C(=O)Nc2cccc(C(F)(F)F)c2)CC1)c1ccc(/C=C/C(c2cc(Cl)c(Cl)c(Cl)c2)C(F)(F)F)cc1Br (centres unmarked) [FA37] | 0 to 50 | 0 | 
O=C(NC1(C(=O)NCC(F)(F)F)CC1)c1ccc(/C=C/C(c2cc(Cl)c(Br)c(Cl)c2)C(F)(F)F)cc1Br (centres unmarked) [FA5] | 50 to 100 | 50 to 100 | 
